According to ChEMBL document CHEMBL2413067, “Investigation into the functional impact of the vancomycin C-ring aryl chloride” (2013):
Values after ≈ are worked out from the molar mass of the structure shown.

What was measured:
[1] = tested on: Staphylococcus aureus; test: Antimicrobial activity against vancomycin-sensitive Staphylococcus aureus ATCC 25923 after 24 hrs; assay type: functional; details: ATCC 25923, 24 h
[2] = Binding affinity to N,N'-Ac2-L-Lys-D-Ala-D-Ala model of cell wall ligand by UV-difference assay
[3] = Binding affinity to N,N'-Ac2-L-Lys-D-Ala-D-Phe model of cell wall ligand by UV-difference assay
[4] = Binding affinity to N,N'-Ac2-L-Lys-D-Ala-Gly model of cell wall ligand by UV-difference assay
[5] = Binding affinity to N,N'-Ac2-L-Lys-D-Ala-D-Ser model of cell wall ligand by UV-difference assay

SMILES	MIC [1] [µg/mL]	Ka [2] [×10⁵ /M]	Ka [3] [×10² /M]	Ka [4] [×10⁴ /M]	Ka [5] [×10³ /M]
CN[C@H](CC(C)C)C(=O)N[C@H]1C(=O)N[C@@H](CC(N)=O)C(=O)N[C@H]2C(=O)N[C@H]3C(=O)N[C@H](C(=O)N[C@H](C(=O)O)c4cc(O)cc(O)c4-c4cc3ccc4O)[C@H](O)c3ccc(cc3)Oc3cc2cc(c3O)Oc2ccc(cc2)[C@H]1O	20 (≈ 18.6 µM)	0.18			
CN[C@H](CC(C)C)C(=O)N[C@H]1C(=O)N[C@@H](CC(N)=O)C(=O)N[C@H]2C(=O)N[C@H]3C(=O)N[C@H](C(=O)N[C@H](C(=O)O)c4cc(O)cc(O)c4-c4cc3ccc4O)[C@H](O)c3ccc(cc3)Oc3cc2cc(c3O)Oc2ccc(cc2Cl)[C@H]1O	10 (≈ 9.01 µM)	0.38	9	0.49	4
CN[C@H](CC(C)C)C(=O)N[C@H]1C(=O)N[C@@H](CC(N)=O)C(=O)N[C@H]2C(=O)N[C@H]3C(=O)N[C@H](C(=O)N[C@H](C(=O)O)c4cc(O)cc(O)c4-c4cc3ccc4O)[C@H](O)c3ccc(c(Cl)c3)Oc3cc2cc(c3O)Oc2ccc(cc2Cl)[C@H]1O [VANCOMYCIN AGLYCON]	1.25 (≈ 1.09 µM)	1.4	9.1	1	3.3
CN[C@H](CC(C)C)C(=O)N[C@H]1C(=O)N[C@@H](CC(N)=O)C(=O)N[C@H]2C(=O)N[C@H]3C(=O)N[C@H](C(=O)N[C@H](C(=O)O)c4cc(O)cc(O)c4-c4cc3ccc4O)[C@H](O)c3ccc(c(Cl)c3)Oc3cc2cc(c3O[C@@H]2O[C@H](CO)[C@@H](O)[C@H](O)[C@H]2O[C@H]2C[C@](C)(N)[C@H](O)[C@H](C)O2)Oc2ccc(cc2Cl)[C@H]1O [VANCOMYCIN]	1.25 (≈ 0.863 µM)	1.8			
